According to ChEMBL document CHEMBL1795231, “Inhibitors of histone demethylases” (Bioorg Med Chem, 2011):

Columns and labels:
[1] = target: T1, Lysine-specific demethylase 4E (Homo sapiens, UniProt B2RXH2)
T1 sequence (B2RXH2 whole entry): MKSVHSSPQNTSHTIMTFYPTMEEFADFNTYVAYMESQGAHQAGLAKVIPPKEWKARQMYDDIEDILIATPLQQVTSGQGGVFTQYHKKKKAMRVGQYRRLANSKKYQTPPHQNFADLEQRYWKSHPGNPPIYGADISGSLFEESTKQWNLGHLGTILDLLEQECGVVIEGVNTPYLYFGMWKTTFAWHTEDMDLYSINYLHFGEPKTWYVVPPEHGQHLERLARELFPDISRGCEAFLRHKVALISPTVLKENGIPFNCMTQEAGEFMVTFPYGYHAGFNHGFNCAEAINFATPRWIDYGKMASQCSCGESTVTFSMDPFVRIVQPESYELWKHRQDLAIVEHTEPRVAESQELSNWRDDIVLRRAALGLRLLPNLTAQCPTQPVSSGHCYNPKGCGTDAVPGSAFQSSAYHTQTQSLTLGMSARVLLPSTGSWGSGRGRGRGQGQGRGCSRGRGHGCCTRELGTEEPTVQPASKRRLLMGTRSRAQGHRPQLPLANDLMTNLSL

[2] = target: Lysine-specific histone demethylase 1A (Homo sapiens, UniProt O60341)
[3] = target: T1, Lysine-specific demethylase 4E; remark: listed apart in the source
[4] = target: T1, Lysine-specific demethylase 4E; remark: listed apart in the source
[5] = target: T1, Lysine-specific demethylase 4E; remark: listed apart in the source
[6] = target: Hypoxia-inducible factor 1-alpha inhibitor (Homo sapiens, UniProt Q9NWT6); assay: Inhibition of asparaginyl hydroxylase factor-inhibiting-HIF
Chain of Hypoxia-inducible factor 1-alpha inhibitor (Q9NWT6 whole entry): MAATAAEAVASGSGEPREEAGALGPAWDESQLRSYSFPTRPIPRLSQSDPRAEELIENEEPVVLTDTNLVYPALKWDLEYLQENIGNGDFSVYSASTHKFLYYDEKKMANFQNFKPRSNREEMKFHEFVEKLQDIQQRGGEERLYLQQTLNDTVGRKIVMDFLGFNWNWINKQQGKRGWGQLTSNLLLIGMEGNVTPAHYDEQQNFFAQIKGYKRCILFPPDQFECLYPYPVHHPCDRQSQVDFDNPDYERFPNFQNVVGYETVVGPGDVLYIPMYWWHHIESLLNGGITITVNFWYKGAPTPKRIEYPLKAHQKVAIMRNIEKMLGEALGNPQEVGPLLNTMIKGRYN

Egl nine homolog 1 = Egl nine homolog 1 (Homo sapiens, UniProt Q9GZT9); assay: Inhibition of human PHD2
Chain of Egl nine homolog 1 (Q9GZT9 whole entry): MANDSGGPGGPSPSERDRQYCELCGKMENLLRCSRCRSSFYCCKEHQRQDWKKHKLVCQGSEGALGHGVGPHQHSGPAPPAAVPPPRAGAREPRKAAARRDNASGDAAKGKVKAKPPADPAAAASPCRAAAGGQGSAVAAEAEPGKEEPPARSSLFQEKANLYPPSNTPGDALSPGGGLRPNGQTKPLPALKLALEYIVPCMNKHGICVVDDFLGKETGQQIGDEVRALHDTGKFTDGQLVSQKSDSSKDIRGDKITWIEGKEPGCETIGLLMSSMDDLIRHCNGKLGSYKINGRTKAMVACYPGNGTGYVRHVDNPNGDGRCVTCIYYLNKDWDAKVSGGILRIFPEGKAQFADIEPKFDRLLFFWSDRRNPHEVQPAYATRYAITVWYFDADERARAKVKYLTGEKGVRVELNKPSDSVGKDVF

[7] = target: T1, Lysine-specific demethylase 4E; remark: listed apart in the source
[8] = target: T1, Lysine-specific demethylase 4E; assay: Uncompetitive inhibition of JMJD2E relative to alpha-ketoglutarate

SMILES: O=C(NO)c1cccc(O)c1
- IC50 [1]: 4.8 µM

SMILES: CC(C)COc1ccc(Cl)cc1C1CC1N (stereo not given)
- IC50 [2]: 9 µM

SMILES: CC1(C)CCC2=C(O1)c1ccccc1C(=O)C2=O [LAPACHONE]
- IC50 [3]: 3 µM
- Ki [4]: 3.55 µM

SMILES: COc1ccccc1CSC[C@@H](NC(=O)C(=O)O)C(=O)O
- IC50 [5]: 200 µM

SMILES: O=C(O)C(=O)N[C@H](CCc1ccccc1)C(=O)O
- Ki [6]: 83 µM
- IC50 (Egl nine homolog 1): > 1000 µM

SMILES: O=C(O)C(=O)N[C@H](Cc1ccc(OS(=O)(=O)c2ccc(Br)cc2)cc1)C(=O)O
- IC50 [7]: 5.4 µM

SMILES: CC(C)(C)c1ccc(S(=O)(=O)Oc2ccc(C[C@@H](NC(=O)C(=O)O)C(=O)O)cc2)cc1
- IC50 [5]: 5 µM

SMILES: C[C@@](Cc1ccc(O)c(O)c1)(NN)C(=O)O [CARBIDOPA]
- Ki [8]: 1.98 µM

SMILES: O=C(O)C(=O)N[C@H](CSCc1ccccc1)C(=O)O
- IC50 [5]: 200 µM

SMILES: O=C(O)C(=O)N[C@H](Cc1ccc(OS(=O)(=O)c2ccc(F)cc2)cc1)C(=O)O
- IC50 [5]: 5 µM

SMILES: Oc1ccc(C2CNCCc3c2cc(O)c(O)c3Cl)cc1 (stereo not given) [FENOLDOPAM]
- Ki [4]: 1.92 µM

SMILES: O=c1cc(-c2ccccc2)oc2cc(O)c(O)c(O)c12 [BAICALEIN]
- IC50 [3]: 3 µM
- Ki [4]: 4.33 µM
